What was measured:
[1] = molecular target: GSK3α (Homo sapiens (Human), UniProt P49840); test: GSK 3α enzyme inhibition (FRET, Z-LYTE), Method 2; type: biochemical
Experimental: (§1) The enzyme inhibitory activities of compounds disclosed herein are determined by FRET using synthetic peptides labelled with both donor and acceptor fluorophores (Z-LYTE, Invitrogen Ltd., Paisley, UK).
The inhibitory activities of compounds of the invention against the GSK 3α enzyme isoform (Invitrogen), are evaluated by determining the level of activation/phosphorylation of the target peptide. The GSK3-α protein (500 ng/mL, 2.5 μL) is mixed with the test compound (2.5 μL at either 4 μg/mL, 0.4 μg/mL, 0.04 μg/mL, or 0.004 μg/mL) for 2 hr at RT. The FRET peptide (8 μM, 2.5 μL), which is a phosphorylation target for GSK3α, and ATP (40 μM, 2.5 μL) are then added to the enzyme/compound mixture and the resulting mixture incubated for 1 hr. Development reagent (protease, 5 μL) is added for 1 hr prior to detection in a fluorescence microplate reader (Varioskan® Flash, ThermoFisher Scientific).
(§2) In all cases, the site-specific protease cleaves non-phosphorylated peptide only and eliminates the FRET signal. Phosphorylation levels of each reaction are calculated using the ratio of coumarin emission (donor) over fluorescein emission (acceptor), for which high ratios indicate high phosphorylation and low ratios indicate low phosphorylation levels.
This method follows the same steps as Method 1 above, but utilises a shorter period of mixing of the test compound (105 minutes instead of 2 hours) with the GSK3-α protein.

[2] = tested on: PBMCs; test: LPS-induced TNFα/IL-8 release in PBMC cells, assay (b); type: cell-based; conditions: Homo sapiens, LPS-stimulated PBMCs, read-out: IC50 Values for Inhibition of Cytokine Release, PBMCs IL-8
Experimental: Peripheral blood mononuclear cells (PBMCs) from healthy subjects are separated from whole blood using a density gradient (Lymphoprep, Axis-Shield Healthcare). The PBMCs are seeded in 96 well plates and treated with compounds at the desired concentration for 2 hours before addition of 1 ng/mL LPS (Escherichia Coli 0111:B4 from Sigma Aldrich) for 24 hours under normal tissue culture conditions (37° C., 5% CO2). The supernatant is harvested for determination of IL-8 and TNFα concentrations by sandwich ELISA (Duo-set, R&D systems) and read on the fluorescence microplate reader (Varioskan® Flash, ThermoFisher Scientific).

[3] = molecular target: p38 MAPKα (Homo sapiens (Human), UniProt Q16539); test: p38 MAPKα enzyme inhibition (FRET, Z-LYTE), Method 2; type: biochemical
[4] = tested on: PBMCs; test: IL-2 and IFN gamma release in CD3/CD28 stimulated PBMC cells, assay (c); type: cell-based; conditions: Homo sapiens, IFNγ, read-out: IC50 Values for Inhibition of Cytokine Release, PBMCs IFNγ
Experimental: PBMCs from healthy subjects are separated from whole blood using a density gradient (Lymphoprep, Axis-Shield Healthcare). Cells are added to a 96 well plate pre-coated with a mixture of CD3/CD28 monoclonal antibodies (0.3 μg/mL eBioscience and 3 μg/mL BD Pharmingen respectively). Compound at the desired concentration is then added to the wells and the plate left for 3 days under normal tissue culture conditions. Supernatants are harvested and IL-2 and IFN gamma release determined by Sandwich ELISA (Duo-set, R&D System). The IC50 is determined from the dose response curve.

[5] = tested on: d-U937 cells; test: Accumulation of β catenin in d-U937 cells, assay (m); type: cell-based, human
Experimental: U937 cells, a human monocytic cell line, are differentiated into macrophage-type cells by incubation with PMA; (100 ng/mL) for between 48 to 72 hr. The cells are then incubated with either final concentrations of test compound or vehicle for 18 hr. The induction of β-catenin by the test compounds is stopped by replacing the media with 4% formaldehyde solution. Endogenous peroxide activity is neutralised by incubating with quenching buffer (100 μL, 0.1% sodium azide, 1% H2O2 in PBS with 0.05% Tween-20) for 20 min. The cells are washed with washing buffer (200 μL; PBS containing 0.05% Tween-20) and incubated with blocking solution (200 μL; 5% milk in PBS) for 1 hr, re-washed with washing buffer (200 μL) and then incubated overnight with anti-β-catenin antibody solution (50 μL) in 1% BSA/PBS (BD, Oxford, UK).
After washing with washing buffer (3×200 μL; PBS containing 0.05% Tween-20), cells are incubated with an HRP-conjugated secondary antibody solution (100 μL) in 1% BSA/PBS (Dako, Cambridge, UK) and the resultant signal is determined colourimetrically (OD: 450 nm with a reference wavelength of 655 nm) using TMB substrate (50 μL; R&D Systems, Abingdon, UK). This reaction is stopped by addition of 1N H2SO4 solution (50 μL). Cells are then washed with washing buffer and 2% crystal violet solution (50 μL) is applied for 30 min. After washing with washing buffer (3×200 μL), 1% SDS (100 μL) is added to each well and the plates are shaken lightly for 1 hr prior to measuring the absorbance at 595 nm (Varioskan® Flash, Thermo-Fisher Scientific).
The measured OD450-655 readings are corrected for cell number by dividing the OD450-655 by the OD595 readings. The percentage induction for each well is calculated relative to vehicle, and the ratio of induction normalised in comparison with the induction produced by a standard control comprising of N-(4-(4-(3-(3-tert-butyl-1-p-tolyl-1H-pyrazol-5-yl)ureido)naphthalen-1-yloxy)pyridin-2-yl)-2-methoxyacetamide (1 μg/mL) which is defined as 100%.

[6] = molecular target: c-Src (Homo sapiens (Human), UniProt P12931); test: c-Src enzyme inhibition (FRET, Z-LYTE); type: biochemical
Experimental: as §1
(§3) The relevant enzyme (3000 ng/mL or 2000 ng/mL respectively, 2.5 μL) is incubated with the test compound (either 4 μg/mL, 0.4 μg/mL, 0.04 μg/mL, or 0.004 μg/mL, 2.5 μL each) for 2 hr at RT. The FRET peptides (8 μM, 2.5 μL), and appropriate ATP solutions (2.5 μL, 800 μM for c-Src, and 60 μM ATP for Syk) are then added to the enzymes/compound mixtures and incubated for 1 hr. Development reagent (protease, 5 μL) is added for 1 hr prior to detection in a fluorescence microplate reader (Varioskan® Flash, ThermoFisher Scientific).
as §2

[7] = molecular target: Syk (Homo sapiens (Human), UniProt P43405); test: Syk enzyme inhibition (FRET, Z-LYTE); type: biochemical
Experimental: as §1
as §3, with “The inhibitory activities of compounds of the invention against c-Src and Syk enzymes (Invitrogen), are evaluated in a similar fashion to that described hereinabove. The relevant” for “The relevant”
as §2

[8] = 1 μg/mL test compound, normalised to reference N-(4-(4-(3-(3-tert-butyl-1-p-tolyl-1H-pyrazol-5-yl)ureido)naphthalen-1-yloxy)pyridin-2-yl)-2-methoxyacetamide
[9] = 5 μg/mL test compound, normalised to the same reference compound
[10] = 10 μg/mL test compound, normalised to the same reference compound

p38 MAPKα, sequence (Q16539 whole entry): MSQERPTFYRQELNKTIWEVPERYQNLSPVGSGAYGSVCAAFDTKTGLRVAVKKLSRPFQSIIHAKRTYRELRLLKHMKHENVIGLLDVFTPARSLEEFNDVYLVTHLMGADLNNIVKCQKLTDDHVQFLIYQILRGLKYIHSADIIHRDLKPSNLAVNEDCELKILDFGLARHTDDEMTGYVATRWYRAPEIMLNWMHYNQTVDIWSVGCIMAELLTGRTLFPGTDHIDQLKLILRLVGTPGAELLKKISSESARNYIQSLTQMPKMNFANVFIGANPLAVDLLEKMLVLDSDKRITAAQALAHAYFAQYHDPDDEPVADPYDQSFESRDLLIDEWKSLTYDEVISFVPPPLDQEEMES
GSK3α, sequence (P49840 whole entry): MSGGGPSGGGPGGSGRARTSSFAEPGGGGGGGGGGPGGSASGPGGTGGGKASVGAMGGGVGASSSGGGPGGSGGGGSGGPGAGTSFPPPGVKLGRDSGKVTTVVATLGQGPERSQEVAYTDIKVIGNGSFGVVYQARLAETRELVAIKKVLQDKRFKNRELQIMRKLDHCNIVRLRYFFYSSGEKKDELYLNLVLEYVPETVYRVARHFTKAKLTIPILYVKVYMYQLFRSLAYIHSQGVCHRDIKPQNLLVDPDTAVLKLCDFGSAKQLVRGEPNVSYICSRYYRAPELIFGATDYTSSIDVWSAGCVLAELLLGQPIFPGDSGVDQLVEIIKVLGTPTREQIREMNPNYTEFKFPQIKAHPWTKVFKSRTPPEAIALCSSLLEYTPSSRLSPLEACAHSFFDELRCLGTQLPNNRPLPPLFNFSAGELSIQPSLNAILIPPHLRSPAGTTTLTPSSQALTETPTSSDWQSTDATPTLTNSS
c-Src, sequence (P12931 whole entry, looked up): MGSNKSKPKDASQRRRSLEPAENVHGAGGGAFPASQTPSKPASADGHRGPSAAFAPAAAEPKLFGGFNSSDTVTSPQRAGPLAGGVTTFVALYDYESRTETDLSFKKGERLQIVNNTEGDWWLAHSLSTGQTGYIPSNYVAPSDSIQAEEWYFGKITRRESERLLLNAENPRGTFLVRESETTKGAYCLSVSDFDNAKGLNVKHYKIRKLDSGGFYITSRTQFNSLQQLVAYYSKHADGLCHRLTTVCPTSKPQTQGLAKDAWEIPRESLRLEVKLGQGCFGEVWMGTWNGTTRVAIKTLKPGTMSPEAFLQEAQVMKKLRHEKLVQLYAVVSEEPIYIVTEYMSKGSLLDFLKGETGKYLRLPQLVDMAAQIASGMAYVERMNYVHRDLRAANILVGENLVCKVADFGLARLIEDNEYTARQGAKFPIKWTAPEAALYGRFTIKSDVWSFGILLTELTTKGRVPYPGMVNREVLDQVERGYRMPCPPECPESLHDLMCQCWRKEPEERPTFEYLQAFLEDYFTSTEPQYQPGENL

Row | SMILES | IC50 [1] | IC50 [3] | IC50 [6] | IC50 [7] | IC50 [2] | IC50 [4] | % β-catenin induction [5, 8] | % β-catenin induction [5, 9] | % β-catenin induction [5, 10]
1 | C#Cc1cc(Nc2nccc(Oc3ccc(NC(=O)Nc4cc(C(C)(C)C)nn4CCC)c4ccccc34)n2)cc(C(=O)NCCOCCOCCOC)c1 [13(b), 3-((4-((4-(3-(3-(tert-Butyl)-1-propyl-1H-pyrazol-5-yl)ureido)naphthalen-1-yl)oxy)-pyrimidin-2-yl)amino)-5-ethynyl-N-(2-(2-(2-methoxyethoxy)ethoxy)ethyl)benzamide] | 13100 nM | – | – | – | 9.3 nM | – | – | – | –
2 | COCCOCCOCCOc1cc(Nc2nccc(Oc3ccc(NC(=O)Nc4cc(C(C)(C)C)nn4-c4ccc(C)cc4)c4ccccc34)n2)cc(OC)c1 [Reference Compound B, 1-(3-(tert-Butyl)-1-(p-tolyl)-1H-pyrazol-5-yl)-3-(4-((2-((3-methoxy-5-(2-(2-(2-methoxy-ethoxy)ethoxy)ethoxy)phenyl)amino)pyrimidin-4-yl)oxy)naphthalen-1-yl)urea, reference compound] | – | 139 nM | – | – | – | – | – | – | –
3 | C#Cc1cc(Nc2nccc(Oc3ccc(NC(=O)Nc4cc(C(C)(C)C)nn4-c4ccc(C)cc4)c4ccccc34)n2)cc(C(=O)NCCN2CCOCC2)c1 [Reference Compound A, 3-((4-((4-(3-(3-(tert-Butyl)-1-(p-tolyl)-1H-pyrazol-5-yl)ureido)naphthalen-1-yl)oxy)-pyrimidin-2-yl)amino)-5-ethynyl-N-(2-morpholinoethyl)benzamide, reference compound] | – | 54 nM | – | – | – | – | – | – | –
4 | C#Cc1cc(Nc2nccc(Oc3ccc(NC(=O)Nc4cc(C(C)(C)C)nn4C(C)C)c4ccccc34)n2)cc(C(=O)NCCOCCOCCOC)c1 [13(a), 3-((4-((4-(3-(3-(tert-Butyl)-1-isopropyl-1H-pyrazol-5-yl)ureido)naphthalen-1-yl)oxy)pyrimidin-2-yl)amino)-5-ethynyl-N-(2-(2-(2-methoxyethoxy)ethoxy)ethyl)-benzamide] | 8610 nM | – | – | – | 5.4 nM | – | – | – | –
5 | C#Cc1cc(Nc2nccc(Oc3ccc(NC(=O)Nc4cc(C(C)(C)C)nn4C(C)(C)C)c4ccccc34)n2)cc(C(=O)NCCOCCOCCOC)c1 [Example 12, 3-((4-((4-(3-(1,3-Di-tert-butyl-1H-pyrazol-5-yl)ureido)naphthalen-1-yl)oxy)pyrimidin-2-yl)amino)-5-ethynyl-N-(2-(2-(2-methoxyethoxy)ethoxy)ethyl)benzamide] | 13100 nM | – | – | – | 546 nM | – | – | – | –

Further compounds by falling IC50 [1], results first:

Row | IC50 [1] | IC50 [3] | IC50 [6] | IC50 [7] | SMILES | IC50 [2] | IC50 [4] | % β-catenin induction [5, 8] | % β-catenin induction [5, 9] | % β-catenin induction [5, 10]
6 | 3070 nM | 20 nM | 5 nM | > 1000 nM | C#Cc1cc(Nc2nccc(Oc3ccc(NC(=O)Nc4cc(C(C)(C)C)nn4CC)c4ccccc34)n2)cc(C(=O)NCCOCCOCCOC)c1 [Example 8, 3-((4-((4-(3-(3-(tert-Butyl)-1-ethyl-1H-pyrazol-5-yl)ureido)naphthalen-1-yl)oxy)pyrimidin-2-yl)amino)-5-ethynyl-N-(2-(2-(2-methoxyethoxy)ethoxy)ethyl)benzamide] | 4.8 nM | 13.2 nM | 2.5% | 4% | 3.5%
7 | 1940 nM | 36 nM | – | – | COc1cc(Nc2nccc(Oc3ccc(NC(=O)Nc4cc(C(C)(C)C)nn4C)c4ccccc34)n2)cc(S(=O)(=O)C2CC2)c1 [Example 3, 1-(3-(tert-Butyl)-1-methyl-1H-pyrazol-5-yl)-3-(4-((2-((3-(cyclopropylsulfonyl)-5-methoxy-phenyl)amino)pyrimidin-4-yl)oxy)naphthalen-1-yl)urea] | 7.2 nM | 22 nM | −1% | 25% | 27%
8 | 1850 nM | 11 nM | 5 nM | > 1000 nM | C#Cc1cc(Nc2nccc(Oc3ccc(NC(=O)Nc4cc(C(C)(C)C)nn4C)c4ccccc34)n2)cc(C(=O)NCCOCCOCCOC)c1 [Example 7, 3-((4-((4-(3-(3-(tert-Butyl)-1-methyl-1H-pyrazol-5-yl)ureido)naphthalen-1-yl)oxy)pyrimidin-2-yl)amino)-5-ethynyl-N-(2-(2-(2-methoxyethoxy)ethoxy)ethyl)benzamide] | 2.2 nM | 11.8 nM | 1.5% | 6% | 9.5%
9 | 1230 nM | – | – | – | COCCOCCOCCOCCOCCOCCOCCOc1cc(Nc2nccc(Oc3ccc(NC(=O)Nc4cc(C(C)(C)C)nn4C)c4ccccc34)n2)cc(OC)c1 [Example 6, 1-(4-((2-((3-(2,5,8,11,14,17,20-Heptaoxadocosan-22-yloxy)-5-methoxyphenyl)amino)-pyrimidin-4-yl)oxy)naphthalen-1-yl)-3-(3-(tert-butyl)-1-methyl-1H-pyrazol-5-yl)urea] | 10.7 nM | – | – | – | –
10 | 1010 nM | – | – | – | C#Cc1cc(Nc2nccc(Oc3ccc(NC(=O)Nc4cc(C(C)(C)C)nn4C)c4ccccc34)n2)cc(C(=O)NCCOCCOC)c1 [Example 4, 3-((4-((4-(3-(3-(tert-Butyl)-1-methyl-1H-pyrazol-5-yl)ureido)naphthalen-1-yl)oxy)pyrimidin-2-yl)amino)-5-ethynyl-N-(2-(2-methoxyethoxy)ethyl)] | 4.7 nM | – | – | – | –
